Assay results: US20100267561A1, “HERBICIDAL PYRIDAZINONE DERIVATIVES” (priority 2007, published 2010)

What was measured:
Assay in all cases: Test B pre-/postemergence plant response
Format in all cases: in vivo
[1] = system: eastern black (E.B.) nightshade (Solanum ptycanthum); conditions: Preemergence
Method in brief: (§1)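 Preemergence and postemergence (plants 2-18 cm, 1- to 4-leaf stage) applications used test chemicals in a non-phytotoxic solvent with surfactant. Plants were held in a greenhouse 13 to 15 days, then rated visually against controls on a 0-100 scale (0 no effect, 100 complete control).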

[2] = system: green foxtail (Setaria viridis); conditions: for Foxtail, Green plant response rating: 8 g ai/ha
Method in brief: as §1

[3] = system: johnsongrass (Sorghum halepense); conditions: for Johnsongrass plant response rating: 8 g ai/ha
Method in brief: as §1

[4] = system: pigweed (Amaranthus retroflexus); conditions: for Pigweed plant response rating: 8 g ai/ha
Method in brief: as §1

[5] = system: woolly cupgrass (Eriochloa villosa); conditions: for Cupgrass, Woolly plant response rating: 8 g ai/ha
Method in brief: as §1

[6] = system: catchweed bedstraw (Galium aparine); conditions: Preemergence
Method in brief: as §1

[7] = system: velvetleaf (Abutilon theophrasti); conditions: for Velvetleaf plant response rating: 8 g ai/ha
Method in brief: as §1

[8] = system: wild oat (Avena fatua); conditions: for Oat, Wild plant response rating: 8 g ai/ha
Method in brief: as §1

[9] = system: downy bromegrass (Bromus tectorum); conditions: for Bromegrass, Downy plant response rating: 8 g ai/ha
Method in brief: as §1

[10] = system: Italian ryegrass (Lolium multiflorum); conditions: for Ryegrass, Italian plant response rating: 8 g ai/ha
Method in brief: as §1

[11] = system: yellow nutsedge (Cyperus esculentus); conditions: for Nutsedge, Yellow plant response rating: 8 g ai/ha
Method in brief: as §1

[12] = system: morningglory (Ipomoea coccinea); conditions: for Morningglory plant response rating: 8 g ai/ha
Method in brief: as §1

[13] = system: blackgrass (Alopecurus myosuroides); conditions: for Blackgrass plant response rating: 8 g ai/ha
Method in brief: as §1

[14] = system: giant foxtail (Setaria faberii); conditions: for Foxtail, Giant plant response rating: 8 g ai/ha
Method in brief: as §1

[15] = 16 g ai/ha, scale 0 to 100 (0 no effect, 100 complete control)
[16] = 31 g ai/ha, 0 to 100 scale, 0 no effect, 100 complete control
[17] = Postemergence, 16 g ai/ha, scale 0 to 100
[18] = Postemergence, 31 g ai/ha, scale 0 to 100, 0 no effect, 100 complete control
[19] = Postemergence, 62 g ai/ha, scale 0 to 100, 0 no effect, 100 complete control
[20] = Preemergence, 16 g ai/ha, scale 0 to 100 (0 no effect, 100 complete control)
[21] = Preemergence, 31 g ai/ha, 0 to 100 scale, 0 no effect, 100 complete control
[22] = Preemergence, 62 g ai/ha, scale 0 to 100

Question: Which results are given for `Cc1cc(-c2ccc(Cl)cc2)nn1-c1c(OS(=O)(=O)c2ccccc2)cnn(C)c1=O` [Compound 35]?
Answer: Plant response rating, Nightshade, E. B. [1, 15]: 0; Plant response rating, Nightshade, E. B. [1, 16]: 0; Plant response rating, Nightshade, E. B. ([1]; 62 g ai/ha, scale 0 to 100): 0; Nightshade, E. B. plant response rating ([1]; 8 g ai/ha, scale 0 to 100): 0; Foxtail, Green plant response rating ([2]; postemergence, 0-100 scale): 0; Plant response rating, Foxtail, Green [2, 17]: 75; Plant response rating, Foxtail, Green [2, 18]: 95; Plant response rating, Foxtail, Green [2, 19]: 95; Plant response rating, Foxtail, Green [2, 20]: 100; Plant response rating, Foxtail, Green [2, 21]: 100; Plant response rating, Foxtail, Green [2, 22]: 100; Foxtail, Green plant response rating ([2]; Preemergence, scale 0 to 100): 30; Johnsongrass plant response rating ([3]; postemergence, 0-100 scale): 0; Plant response rating, Johnsongrass [3, 17]: 60; Plant response rating, Johnsongrass [3, 18]: 95; Plant response rating, Johnsongrass [3, 19]: 95; Plant response rating, Johnsongrass [3, 20]: 80; Plant response rating, Johnsongrass [3, 21]: 80; Plant response rating, Johnsongrass [3, 22]: 80; Johnsongrass plant response rating ([3]; Preemergence, scale 0 to 100): 45; Pigweed plant response rating ([4]; postemergence, 0-100 scale): 0; Plant response rating, Pigweed [4, 17]: 0; Plant response rating, Pigweed [4, 18]: 0; Plant response rating, Pigweed [4, 19]: 0; Plant response rating, Pigweed [4, 20]: 0; Plant response rating, Pigweed [4, 21]: 0; Plant response rating, Pigweed [4, 22]: 0; Pigweed plant response rating ([4]; Preemergence, scale 0 to 100): 0; Cupgrass, Woolly plant response rating ([5]; postemergence, 0-100 scale): 80; Plant response rating, Cupgrass, Woolly [5, 17]: 95; Plant response rating, Cupgrass, Woolly [5, 18]: 100; Plant response rating, Cupgrass, Woolly [5, 19]: 100; Plant response rating, Cupgrass, Woolly [5, 20]: 35; Plant response rating, Cupgrass, Woolly [5, 21]: 100; Plant response rating, Cupgrass, Woolly [5, 22]: 100; Cupgrass, Woolly plant response rating ([5]; Preemergence, scale 0 to 100): 35; Plant response rating, Galium [6, 15]: 0; Plant response rating, Galium [6, 16]: 0; Plant response rating, Galium ([6]; 62 g ai/ha, scale 0 to 100): 20; Galium plant response rating ([6]; 8 g ai/ha, scale 0 to 100): 0; Velvetleaf plant response rating ([7]; postemergence, 0-100 scale): 0; Plant response rating, Velvetleaf [7, 17]: 0; Plant response rating, Velvetleaf [7, 19]: 0; Plant response rating, Velvetleaf [7, 20]: 0; Plant response rating, Velvetleaf [7, 21]: 0; Plant response rating, Velvetleaf [7, 22]: 0; Velvetleaf plant response rating ([7]; Preemergence, scale 0 to 100): 0; Oat, Wild plant response rating ([8]; postemergence, 0-100 scale): 50; Plant response rating, Oat, Wild [8, 17]: 70; Plant response rating, Oat, Wild [8, 18]: 85; Plant response rating, Oat, Wild [8, 19]: 95; Plant response rating, Oat, Wild [8, 21]: 80; Plant response rating, Oat, Wild [8, 22]: 95; Oat, Wild plant response rating ([8]; Preemergence, scale 0 to 100): 0; Bromegrass, Downy plant response rating ([9]; postemergence, 0-100 scale): 0; Plant response rating, Bromegrass, Downy [9, 17]: 20; Plant response rating, Bromegrass, Downy [9, 18]: 20; Plant response rating, Bromegrass, Downy [9, 19]: 60; Plant response rating, Bromegrass, Downy [9, 20]: 40; Plant response rating, Bromegrass, Downy [9, 21]: 40; Plant response rating, Bromegrass, Downy [9, 22]: 60; Bromegrass, Downy plant response rating ([9]; Preemergence, scale 0 to 100): 40; Ryegrass, Italian plant response rating ([10]; postemergence, 0-100 scale): 40; Plant response rating, Ryegrass, Italian [10, 17]: 40; Plant response rating, Ryegrass, Italian [10, 18]: 90; Plant response rating, Ryegrass, Italian [10, 19]: 98; Plant response rating, Ryegrass, Italian [10, 20]: 100; Plant response rating, Ryegrass, Italian [10, 21]: 100; Plant response rating, Ryegrass, Italian [10, 22]: 100; Ryegrass, Italian plant response rating ([10]; Preemergence, scale 0 to 100): 100; Nutsedge, Yellow plant response rating ([11]; postemergence, 0-100 scale): 0; Plant response rating, Nutsedge, Yellow [11, 17]: 0; Plant response rating, Nutsedge, Yellow [11, 18]: 0; Plant response rating, Nutsedge, Yellow [11, 19]: 0; Plant response rating, Nutsedge, Yellow [11, 20]: 0; Plant response rating, Nutsedge, Yellow [11, 21]: 0; Plant response rating, Nutsedge, Yellow [11, 22]: 0; Nutsedge, Yellow plant response rating ([11]; Preemergence, scale 0 to 100): 0; Morningglory plant response rating ([12]; postemergence, 0-100 scale): 0; Plant response rating, Morningglory [12, 17]: 0; Plant response rating, Morningglory [12, 18]: 0; Plant response rating, Morningglory [12, 19]: 0; Plant response rating, Morningglory [12, 20]: 0; Plant response rating, Morningglory [12, 21]: 0; Plant response rating, Morningglory [12, 22]: 10; Morningglory plant response rating ([12]; Preemergence, scale 0 to 100): 0; Blackgrass plant response rating ([13]; postemergence, 0-100 scale): 0; Plant response rating, Blackgrass [13, 17]: 60; Plant response rating, Blackgrass [13, 18]: 70; Plant response rating, Blackgrass [13, 19]: 90; Plant response rating, Blackgrass [13, 20]: 85; Plant response rating, Blackgrass [13, 21]: 100; Plant response rating, Blackgrass [13, 22]: 100; Blackgrass plant response rating ([13]; Preemergence, scale 0 to 100): 0; Foxtail, Giant plant response rating ([14]; postemergence, 0-100 scale): 90; Plant response rating, Foxtail, Giant [14, 17]: 98; Plant response rating, Foxtail, Giant [14, 18]: 100; Plant response rating, Foxtail, Giant [14, 19]: 100; Plant response rating, Foxtail, Giant [14, 20]: 100; Plant response rating, Foxtail, Giant [14, 21]: 100; Plant response rating, Foxtail, Giant [14, 22]: 100; Foxtail, Giant plant response rating ([14]; Preemergence, scale 0 to 100): 100
